Patent US8524712B2, “Triazinone and diazinone derivatives useful as HSP90 inhibitors” (Synta Pharmaceuticals Corp., priority 2007, dated 2013)

Assays:
[1] = test system: MV-4-11 cells; test: IC50 of Table 2: Method 2, MV-4-11 cell survival (Cell Counting Kit-8), reported as Her2 degradation / inhibition of Hsp90; type: cell-based; details: Homo sapiens, MV4-11, 72 hours at 37° C., text calls it Her2 degradation, table title inhibition of Hsp90
Procedure: MV-4-11 cells (20,000 cells/well) were cultured in 96-well plates and maintained at 37° C. for several hours. The cells were treated with a compound of the invention or 17AAG (a positive control) at various concentrations and incubated at 37° C. for 72 hours. Cell survival was measured with Cell Counting Kit-8 (Dojindo Laboratories, Cat. #CK04).

[2] = test system: Her2; test: Degradation of Her2 in BT-474 cells, Method 1 (Western blot); type: cell-based, human; details: 0.5 μM, overnight
Procedure: Human high-Her2 breast carcinoma BT474 (HTB-20), SK-BR-3 (HTB-30) and MCF-7 breast carcinoma (HTB-22) from American Type Culture Collection, VA, USA were grown in Dulbecco's modified Eagle's medium with 4 mM L-glutamine and antibiotics (100 IU/ml penicillin and 100 ug/ml streptomycine; GibcoBRL). To obtain exponential cell growth, cells were trypsinized, counted and seeded at a cell density of 0.5×10^6 cells/ml regularly, every 3 days. All experiments were performed on day 1 after cell passage.
BT-474 cells are treated with 0.5 μM, 2 μM, or 5 μM of 17AAG (a positive control) or 0.5 μM, 2 μM, or 5 μM of a compound of the invention overnight in DMEM medium. After treatment, each cytoplasmic sample is prepared from 1×10^6 cells by incubation of cell lysis buffer (#9803, cell Signaling Technology) on ice for 10 minutes. The resulting supernatant used as the cytosol fractions is dissolved with sample buffer for SDS-PAGE and run on a SDS-PAGE gel, blotted onto a nitrocellulose membrane by using semi-dry transfer. Non-specific binding to nitrocellulose is blocked with 5% skim milk in TBS with 0.5% Tween at room temperature for 1 hour, then probed with anti-Her2/ErB2 mAb (rabbit IgG, #2242, Cell Signaling) and anti-Tubulin (T9026, Sigma) as housekeeping control protein. […]

Compound	IC50 [1] [µM]	degradation of Her2 [2]
CC(C)c1cc(C2NC(=O)NC3=C2C(=O)OC3)c(O)cc1O (stereo not drawn) [Compound 3, 4-(2,4-dihydroxy-5-isopropylphenyl)-3,4-dihydrofuro[3,4-d]pyrimidine-2,5(1H,7H)-dione]	> 500	–
C=CCNC1=C2C[C@@H](C)C[C@H](OC)[C@H](O)[C@@H](C)/C=C(\C)[C@H](OC(N)=O)[C@@H](OC)/C=C\C=C(/C)C(=O)NC(=CC1=O)C2=O [Compound 17AAG, 17-allylamino-17-demethoxygeldanamycin]	–	partial degradation
CC(C)c1cc(C2=NNC(=O)CN2c2ccc(N(C)C)cc2)c(O)cc1O [Compound 7, 3-(2,4-dihydroxy-5-isopropylphenyl)-4-(4-(dimethylamino)phenyl)-4,5-dihydro-1,2,4-triazin-6(1H)-one]	> 50	–
CCN1CC2=C(C1=O)C(c1cc(C(C)C)c(O)cc1O)NC(=O)N2 (stereo not drawn) [Compound 2, 4-(2,4-dihydroxy-5-isopropylphenyl)-6-ethyl-3,4,6,7-tetrahydro-1H-pyrrolo[3,4-d]pyrimidine-2,5-dione]	> 100	–
CC(C)c1cc(C2=NNC(=O)CN2c2ccc(N3CCOCC3)cc2)c(O)cc1O [Compound 6, 3-(2,4-dihydroxy-5-isopropylphenyl)-4-(4-morpholinophenyl)-4,5-dihydro-1,2,4-triazin-6(1H)-one]	> 50	–
COc1ccc(CN2CC(=O)NN=C2c2cc(C(C)C)c(O)cc2O)cc1 [Compound 8, 3-(2,4-dihydroxy-5-isopropylphenyl)-4-(4-methoxybenzyl)-4,5-dihydro-1,2,4-triazin-6(1H)-one]	> 50	–
CC(C)c1cc(C2=NNC(=O)CN2c2ccc3c(ccn3C)c2)c(O)cc1O [Compound 4, 3-(2,4-dihydroxy-5-isopropylphenyl)-4-(1-methyl-1H-indol-5-yl)-4,5-dihydro-1,2,4-triazin-6(1H)-one]	> 50	–
CCOC(=O)C1=C(C)NC(=O)NC1c1cc(C(C)C)c(O)cc1O (stereo not drawn) [Compound 1, ethyl 4-(2,4-dihydroxy-5-isopropylphenyl)-6-methyl-2-oxo-1,2,3,4-tetrahydropyrimidine-5-carboxylate]	> 100	–
CC(C)c1cc(C2=NNC(=O)CN2Cc2ccc3c(c2)OCO3)c(O)cc1O [Compound 5, 4-(benzo[d][1,3]dioxol-5-ylmethyl)-3-(2,4-dihydroxy-5-isopropylphenyl)-4,5-dihydro-1,2,4-triazin-6(1H)-one]	38.4	–
